Measured values as given in patent US20210087217A1, “NUCLEOTIDE HEMI-SULFATE SALT FOR THE TREATMENT OF HEPATITIS C VIRUS” (Atea Pharmaceuticals, Inc., priority 2017, published 2021).

Test: Storage of Compound 1 forms and amorphous salts at 25° C./60% RH for 14 days (HPLC, XRPD, observation)
Details: for Physical/chemical stability and appearance on storage: 25° C./60% RH, 14 days
Description: This initial characterization was followed by storage at 25° C./60% relative humidity (RH) for 14 days with analysis by […] and XRPD after 7 and 14 days. FIG. 4A is the XRPD after 14 days at 25° C./60% (RH).
The samples were then frozen with the solvent removed by lyophilization.
The samples were then subjected to storage at 25° C./60% relative humidity (RH) for 14 days with analysis by HPLC and XRPD after 7 (FIG. 4B) and 14 days (FIG. 5A).

Row | SMILES | HPLC purity (0 days at 25° C./60% RH) | Observation (0 days at 25° C./60% RH) | Physical/chemical stability and appearance on storage | HPLC purity (7 days at 25° C./60% RH) | Observation (7 days at 25° C./60% RH) | HPLC purity (14 days at 25° C./60% RH) | Observation (14 days at 25° C./60% RH) | Hygroscopicity
1 | CNc1nc(N)nc2c1ncn2[C@@H]1O[C@H](CO[P@@](=O)(N[C@@H](C)C(=O)OC(C)C)Oc2ccccc2)[C@@H](O)[C@@]1(C)F [Sample 1-1] | 98.6 | White solid | stable | 98.7 | White solid | 98.5 | White solid | 
2 | CNc1nc(N)nc2c1ncn2[C@@H]1O[C@H](CO[P@@](=O)(N[C@@H](C)C(=O)OC(C)C)Oc2ccccc2)[C@@H](O)[C@@]1(C)F [Sample 1-2] | 99.1 | White solid | stable | 99.2 | White solid | 99.0 | White solid | 
3 | CNc1nc(N)nc2c1ncn2[C@@H]1O[C@H](CO[P@@](=O)(N[C@@H](C)C(=O)OC(C)C)Oc2ccccc2)[C@@H](O)[C@@]1(C)F [Sample 1-3] | 99.7 | White solid |  | 99.6 | White solid | 99.4 | White solid | 
4 | CNc1nc(N)nc2c1ncn2C1OC(COP(=O)(NC(C)C(=O)OC(C)C)Oc2ccccc2)C(O)C1(C)F.Cl (centres unmarked) [Sample 1-4] | 98.7 | White solid | physically and chemically stable | 98.8 | White solid | 98.6 | White solid | hygroscopic
5 | CNc1nc(N)nc2c1ncn2C1OC(COP(=O)(NC(C)C(=O)OC(C)C)Oc2ccccc2)C(O)C1(C)F.O=S(=O)(O)O (centres unmarked) [Sample 1-5] | 98.4 | White solid | physically unstable | 55.7 | Sticky white |  | Sticky gum | 
6 | CNc1nc(N)nc2c1ncn2C1OC(COP(=O)(NC(C)C(=O)OC(C)C)Oc2ccccc2)C(O)C1(C)F.CNc1nc(N)nc2c1ncn2C1OC(COP(=O)(NC(C)C(=O)OC(C)C)Oc2ccccc2)C(O)C1(C)F.O=S(=O)(O)O (centres unmarked) [Sample 1-9] | 98.7 | White solid | physically and chemically stable | 98.1 | White solid | 96.4 | White solid | 
